The values below come from PubChem BioAssay AID1918941 (Molecular Pharmacology Branch, DTP, NCI, 2023).

Values joined by “and” are separate entries in the source; they are usually repeats but may differ in a detail not shown here. Equal values may be shown once. Some results are limits rather than exact numbers.

The test system of the assay is SW 1271 complex spheroids, viability. Put plainly: Anticancer human tumor SW 1271 cell line growth inhibition [LSD1].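 On all read-outs here: spheroids exposed to agents for 7 days before luminescence read.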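 On viability, T/C: 100% = DMSO vehicle control viability.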 The note with it: for viability, T/C: stronger effect = lower value. A digest of the protocol: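 Drug combinations with the LSD1 inhibitor iadademstat tested on tumor cells co-cultured as spheroids with endothelial cells and mesenchymal stem cells. Concentrations descended in half-log increments from clinical Cmax or 10 microM.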

The mark [1] stands for this setting: curve of first compound, second compound 0.1 µM.
The mark [2] stands for this setting: curve of first compound, second compound 0.316 µM.
Where [3] appears, read: curve of first compound, second compound 1 µM.
The mark [4] stands for this setting: curve of first compound, second compound 3.16 µM.
Setting [5] is: curve of first compound, second compound 10 µM.
The mark [6] stands for this setting: second compound 0.1 µM, first compound 0.00949 µM.
The mark [7] stands for this setting: second compound 0.1 µM, first compound 0.03 µM.
[8] abbreviates: second compound 0.1 µM, first compound 0.0949 µM.
Where [9] appears, read: second compound 0.1 µM, first compound 0.3 µM.
[10] abbreviates: second compound 0.1 µM, first compound 0.949 µM.
The mark [11] stands for this setting: second compound 0.1 µM, first compound 3 µM.
[12] abbreviates: second compound 0.316 µM, first compound 0.00949 µM.
[13] abbreviates: second compound 0.316 µM, first compound 0.03 µM.
Setting [14] is: second compound 0.316 µM, first compound 0.0949 µM.
[15] abbreviates: second compound 0.316 µM, first compound 0.3 µM.
Where [16] appears, read: second compound 0.316 µM, first compound 0.949 µM.
Setting [17] is: second compound 0.316 µM, first compound 3 µM.
The mark [18] stands for this setting: second compound 1 µM, first compound 0.00949 µM.
[19] abbreviates: second compound 1 µM, first compound 0.03 µM.
[20] abbreviates: second compound 1 µM, first compound 0.0949 µM.
Setting [21] is: second compound 1 µM, first compound 0.3 µM.
[22] abbreviates: second compound 1 µM, first compound 0.949 µM.
[23] abbreviates: second compound 1 µM, first compound 3 µM.
Where [24] appears, read: second compound 3.16 µM, first compound 0.00949 µM.
Where [25] appears, read: second compound 3.16 µM, first compound 0.03 µM.
Where [26] appears, read: second compound 3.16 µM, first compound 0.0949 µM.
The mark [27] stands for this setting: second compound 3.16 µM, first compound 0.3 µM.
Setting [28] is: second compound 3.16 µM, first compound 0.949 µM.
Where [29] appears, read: second compound 3.16 µM, first compound 3 µM.
Setting [30] is: second compound 10 µM, first compound 0.00949 µM.
The mark [31] stands for this setting: second compound 10 µM, first compound 0.03 µM.
Where [32] appears, read: second compound 10 µM, first compound 0.0949 µM.
Setting [33] is: second compound 10 µM, first compound 0.3 µM.
[34] abbreviates: second compound 10 µM, first compound 0.949 µM.
Where [35] appears, read: second compound 10 µM, first compound 3 µM.

For the compound `O=C(C=Cn1cnc(-c2cc(C(F)(F)F)cc(C(F)(F)F)c2)n1)NNc1cnccn1` + NC1CC1c1ccc(-c2cccc(O)c2)cc1, the IC50 runs as follows: under setting [1], 140 nM; under setting [2], 148 nM; under setting [3], 88.9 nM; under setting [4], 171 nM; under setting [5], 195 nM. The viability, T/C is 79% (second compound 0.1 µM, first compound 0.00316 µM); 70.9% (second compound 0.1 µM, first compound 0.01 µM); 66.7% (second compound 0.1 µM, first compound 0.0316 µM); 49.3% (second compound 0.1 µM, first compound 0.1 µM); 45.3% (second compound 0.1 µM, first compound 0.316 µM); 21.6% (second compound 0.1 µM, first compound 1 µM). Also, the viability, T/C (second compound 0.316 µM, first compound 0.00316 µM) is 68.7%; the viability, T/C (second compound 0.316 µM, first compound 0.01 µM) was 74.1%; the viability, T/C (second compound 0.316 µM, first compound 0.0316 µM) is 64.8%; the viability, T/C (second compound 0.316 µM, first compound 0.1 µM) was 51.7%; the viability, T/C (second compound 0.316 µM, first compound 0.316 µM) was 42%; the viability, T/C (second compound 0.316 µM, first compound 1 µM) is 19.4%. Also, the viability, T/C reads like this: (second compound 1 µM, first compound 0.00316 µM) 73%; (second compound 1 µM, first compound 0.01 µM) 64.1%; (second compound 1 µM, first compound 0.0316 µM) 69.5%; (second compound 1 µM, first compound 0.1 µM) 41.3%; (second compound 1 µM, first compound 0.316 µM) 39.7%; (second compound 1 µM, first compound 1 µM) 23.7%. In addition, the viability, T/C by setting is: (second compound 3.16 µM, first compound 0.00316 µM) 73.9%; (second compound 3.16 µM, first compound 0.01 µM) 77.3%; (second compound 3.16 µM, first compound 0.0316 µM) 76.1%; (second compound 3.16 µM, first compound 0.1 µM) 53.3%; (second compound 3.16 µM, first compound 0.316 µM) 43.1%; (second compound 3.16 µM, first compound 1 µM) 23.4%. In addition, the viability, T/C runs as follows: (second compound 10 µM, first compound 0.00316 µM) 71.2%; (second compound 10 µM, first compound 0.01 µM) 73.6%; (second compound 10 µM, first compound 0.0316 µM) 68.1%; (second compound 10 µM, first compound 0.1 µM) 55.3%; (second compound 10 µM, first compound 0.316 µM) 45.8%; (second compound 10 µM, first compound 1 µM) 28%.

For `NS(=O)(=O)OCC1CC(n2ccc3c(NC4CCc5ccccc54)ncnc32)CC1O` (stereo not drawn) + NC1CCC(NC2CC2c2ccccc2)CC1, the IC50 runs as follows: under setting [1], over 3000 nM; under setting [2], over 3000 nM; under setting [3], over 3000 nM; under setting [4], over 3000 nM; under setting [5], over 3000 nM. For the same compound, the viability, T/C reads like this: under setting [6], 149%; under setting [7], 125%; under setting [8], 77.5%; under setting [9], 84.7%; under setting [10], 79.6%; under setting [11], 74.8%. The viability, T/C is, setting by setting: under setting [12], 162%; under setting [13], 131%; under setting [14], 87.7%; under setting [15], 73.6%; under setting [16], 77.5%; under setting [17], 77.8%. Also, the viability, T/C runs as follows: under setting [18], 164%; under setting [19], 115%; under setting [20], 82.4%; under setting [21], 66.5%; under setting [22], 80.7%; under setting [23], 75.5%. Besides, the viability, T/C reads like this: under setting [24], 132%; under setting [25], 113%; under setting [26], 93.8%; under setting [27], 75.2%; under setting [28], 69.8%; under setting [29], 70.1%. The viability, T/C runs as follows: under setting [30], 163%; under setting [31], 124%; under setting [32], 86.5%; under setting [33], 73.9%; under setting [34], 73.9%; under setting [35], 70.2%.

Consider `COc1cc(C2c3cc4c(cc3C(OC3OC5COC(C)OC5C(O)C3O)C3COC(=O)C23)OCO4)cc(OC)c1O` (stereo not drawn) + NC1CC1c1ccc(-c2cccc(O)c2)cc1, for which the half-maximal inhibitory concentration (IC50) under setting [1] was 1390 nM; the IC50 under setting [2] was over 3000 nM; the IC50 under setting [3] worked out at 582 nM; the IC50 under setting [4] is over 3000 nM; the IC50 under setting [5] was 289 nM. For the same compound, the viability, T/C is 84.4% under setting [6]; 68.3% under setting [7]; 63.8% under setting [8]; 53.7% under setting [9]; 56.7% under setting [10]; 44.4% under setting [11]. In addition, the viability, T/C under setting [12] was 70.7%; the viability, T/C under setting [13] was 58.9%; the viability, T/C under setting [14] was 67.7%; the viability, T/C under setting [15] was 52.8%; the viability, T/C under setting [16] was 49.9%; the viability, T/C under setting [17] is 54%. The viability, T/C is 79.2% under setting [18]; 67.9% under setting [19]; 62.9% under setting [20]; 57.1% under setting [21]; 45.8% under setting [22]; 38% under setting [23]. Also, the viability, T/C under setting [24] is 64.9%; the viability, T/C under setting [25] was 55.2%; the viability, T/C under setting [26] is 61.3%; the viability, T/C under setting [27] was 48.2%; the viability, T/C under setting [28] is 48.5%; the viability, T/C under setting [29] is 59.9%. Moreover, the viability, T/C is 61% under setting [30]; 60.9% under setting [31]; 53.1% under setting [32]; 51.5% under setting [33]; 41.6% under setting [34]; 46.5% under setting [35].

For the compound `CC1COCCN1c1cc(-c2ccnn2C)c2ccnc(-c3ccn[nH]3)c2n1` (stereo not drawn), the viability, T/C was 72.4% and 71.8% (compound 0.00316 µM); 72.6% and 63.3% (compound 0.01 µM); 50.7% and 59% (compound 0.0316 µM); 50.3% and 47.2% (compound 0.1 µM); 48.2% and 43.4% (compound 0.316 µM); 30.1% and 28.4% (compound 1 µM). For the setting “curve of compound”, the IC50 was 108 nM and 92.1 nM.

For the compound `O=C(C=Cn1cnc(-c2cc(C(F)(F)F)cc(C(F)(F)F)c2)n1)NNc1cnccn1`, the viability, T/C by setting is: (compound 0.00316 µM) 92% and 82.7%; (compound 0.01 µM) 87.1% and 89.1%; (compound 0.0316 µM) 80% and 75.1%; (compound 0.1 µM) 45.3% and 51.4%; (compound 0.316 µM) 47.8% and 40.4%; (compound 1 µM) 21.6% and 16.6%. In addition, the IC50 (curve of compound) is 153 nM and 147 nM.

On to `CC1(C)CCC(CN2CCN(c3ccc(C(=O)NS(=O)(=O)c4ccc(NCC5CCOCC5)c([N+](=O)[O-])c4)c(Oc4cnc5[nH]ccc5c4)c3)CC2)=C(c2ccc(Cl)cc2)C1`, for which the viability, T/C (compound 0.0316 µM) was 93.1% and 103%; the viability, T/C (compound 0.1 µM) is 97.7% and 112%; the viability, T/C (compound 0.316 µM) is 87.7% and 98.3%; the viability, T/C (compound 1 µM) was 101% and 102%; the viability, T/C (compound 3.16 µM) is 28.1% and 55.8%; the viability, T/C (compound 10 µM) was 0.45% and 4.57%. Further, the IC50 (curve of compound) is 2170 nM and 3600 nM.

As for `Cn1ncnc1C1c2n[nH]c(=O)c3cc(F)cc(c23)NC1c1ccc(F)cc1` (stereo not drawn), the viability, T/C reads like this: (compound 0.000316 µM) 89.1% and 97.2%; (compound 0.001 µM) 94.9% and 81.7%; (compound 0.00316 µM) 87.8% and 87%; (compound 0.01 µM) 91.1% and 85%; (compound 0.0316 µM) 84.2% and 92.2%; (compound 0.1 µM) 91.7% and 99.5%. Besides, the 50% inhibitory concentration (IC50) (curve of compound) is over 100 nM.
